Results: patent US8232401B2 (Japan Tobacco Inc., priority 2002, dated 2012)

The molecules below were run against T1, HIV integrase (Human immunodeficiency virus type 1 group M subtype B, UniProt P12497, F1332H) (assay: Determination of enzyme (HIV integrase) inhibitory activity (strand transfer, microtiter plate, absorbance at 450 nm)). Settings: recombinant HIV integrase (F185H) expressed in E. coli; donor DNA on streptavidin plate, digoxigenin target DNA; 37° C.
T1 construct: HIV integrase full length gene; made in house; host or cells: Escherichia coli BL21(DE3)
Format: biochemical, HIV (Human Immunodeficiency Virus (type 1))
Procedure: The following explains evaluation methods of the HIV integrase inhibitory activity of the compound of the present invention.
(i) Construction of Recombinant Integrase Gene Expression System
(ii) Production and Purification of Integrase Protein
Escherichia coli recombinant BL21(DE3) transformed with plasmid pET21a-IN-F185H obtained in (i) was shake cultured at 30° C. in a liquid medium containing ampicillin. When the culture reached the logarithmic growth phase, isopropyl-β-D-thiogalactopyranoside was added to promote expression of integrase gene. The culture was continued for 3 hrs to promote accumulation of the integrase protein. The recombinant E. coli was collected in pellets by centrifugal separation and preserved at −80° C.
The E. coli was suspended in Lysis buffer (20 mM HEPES (pH 7.5), 5 mM DTT, 10 mM CHAPS, 10% glycerol) containing 1M sodium chloride and subjected to repeat pressurization and depressurization for rupture, and centrifugal separation at 4° C., 40,000×g, 60 min to recover a water-soluble fraction (supernatant). This was diluted 10-fold with Lysis buffer free of sodium chloride, mixed with SP-Sepharose (Pharmacia Corporation) and stirred at 4° C. for 60 min to allow adsorption of integrase protein to the resin. The resin was washed with Lysis buffer containing 100 mM sodium chloride and the integrase protein was eluted with Lysis buffer containing 1M sodium chloride.
The eluted integrase protein solution was applied to a Superdex 75 (Pharmacia Corporation) column for gel filtration. The protein was eluted with Lysis buffer containing 1M sodium chloride.
The obtained fractions of the integrate protein were collected and preserved at −80° C.
(iii) Preparation of DNA Solution
The following DNA synthesized by Greiner was dissolved in TE buffer (10 mM Tris-hydrochloric acid (pH 8.0), 1 mM EDTA) and mixed with donor DNA, target DNA, each complementary strand (+ and − strands) to 1 μM. The mixture was heated at 95° C. for 5 min, 80° C. for 10 min, 70° C. for 10 min, 60° C. for 10 min, 50° C. for 10 min and 40° C. for 10 min and preserved at 25° C. to give a double stranded DNA, which was used for the test. Donor DNA (− strand having biotin attached to the 5′ terminal)
(iv) Determination of Enzyme (HIV Integrase) Inhibitory activity
The donor DNA was diluted with TE buffer to 10 nM, of which 50 μl was added to each well of streptavidin-coated microtiter plate (Roche) and allowed to adsorb at 37° C. for 60 min. The DNA was washed with phosphate buffer (Dulbecco PBS, Sanko Junyaku Co., Ltd.) containing 0.1% Tween 20 and phosphate buffer. Then, a reaction mixture (70 μl) having the following composition, a test substance (10 μl) diluted with the reaction mixture and […] integrase protein (10 μl) were added to each well and reacted at 37° C. for 60 min.
Then, 50 nM target DNA (1.0 μl) was added, reacted at 37° C. for 10 min and washed with phosphate buffer containing 0.1% Tween 20 to stop the reaction.
Then, 100 mU/ml peroxidase labeled anti-digoxigenin antibody solution (Roche, 100 μl) was added, and the mixture was reacted at 37° C. for 60 min, followed by washing with phosphate buffer containing 0.1% Tween 20.
A peroxidase color solution (Bio Rad, 100 μl) was added and allowed to react at room temperature for 4 min. The color reaction was stopped by adding 1N sulfuric acid (100 μl). The absorbance at 450 nm was measured.
The HIV integrase inhibitory activity (IC50) of the compound of the present invention was calculated from the inhibition rate according to the following formula. […] Evaluation of Antiviral Activity

Going from O=C(O)c1cn(CCO)c2c(F)cc(Cc3cccc(Cl)c3Cl)cc2c1=O [Example 1-2, 6-(2,3-dichlorobenzyl)-1,4-dihydro-8-fluoro-1-(2-hydroxyethyl)-4-oxo-3-quinolinecarboxylic acid] to O=C(O)c1cn(CCCO)c2ccc(Cc3cccc(Cl)c3Cl)cc2c1=O [Example 1-25, 6-(2,3-Dichlorobenzyl)-1-(3-hydroxypropyl)-4-oxo-1,4-dihydroquinoline-3-carboxylic acid], the IC50 rises from 33 nM to 160 nM (4.8-fold). The first is the more potent here.

Going from CS(=O)(=O)NCCn1cc(C(=O)O)c(=O)c2cc(Cc3cccc(Cl)c3Cl)ccc21 [Example 1-3, 6-(2,3-Dichlorobenzyl)-1-(2-methanesulfonylaminoethyl)-4-oxo-1,4-dihydroquinoline-3-carboxylic acid] to NS(=O)(=O)Cn1cc(C(=O)O)c(=O)c2cc(Cc3cccc(Cl)c3Cl)ccc21 [Example 1-9, 6-(2,3-Dichlorobenzyl)-4-oxo-1-sulfamoylmethyl-1,4-dihydroquinoline-3-carboxylic acid], the IC50 falls from 360 nM to 17 nM (21-fold).

O=C(O)c1cn(CCn2ccnc2)c2ccc(Cc3cccc(Cl)c3Cl)cc2c1=O [Example 1-4, 6-(2,3-Dichlorobenzyl)-1-(2-imidazol-1-ylethyl)-4-oxo-1,4-dihydroquinoline-3-carboxylic acid] and COCCn1cc(C(=O)O)c(=O)c2cc(Cc3cccc(Cl)c3Cl)ccc21 [Example 1-26, 6-(2,3-Dichlorobenzyl)-1-(2-methoxyethyl)-4-oxo-1,4-dihydroquinoline-3-carboxylic acid] are within 1.5-fold of each other in IC50: 240 nM for the first, 180 nM for the second.

Compared with CNC(=O)Cn1cc(C(=O)O)c(=O)c2cc(Cc3cccc(Cl)c3Cl)ccc21 [Example 1-6, 6-(2,3-Dichlorobenzyl)-1-methylcarbamoylmethyl-4-oxo-1,4-dihydroquinoline-3-carboxylic acid], CC(=O)Cn1cc(C(=O)O)c(=O)c2cc(Cc3cccc(Cl)c3Cl)ccc21 [Example 1-14, 6-(2,3-Dichlorobenzyl)-4-oxo-1-(2-oxopropyl)-1,4-dihydroquinoline-3-carboxylic acid] is 1.9-fold lower in IC50: 140 nM for the first, 75 nM for the second.

NC(=O)Cn1cc(C(=O)O)c(=O)c2cc(Cc3cccc(Cl)c3Cl)ccc21 [Example 1-7, 1-Carbamoylmethyl-6-(2,3-Dichlorobenzyl)-4-oxo-1,4-dihydroquinoline-3-carboxylic acid] and O=C(O)Cn1cc(C(=O)O)c(=O)c2cc(Cc3cccc(Cl)c3Cl)ccc21 [Example 1-28, 1-Carboxymethyl-6-(2,3-dichlorobenzyl)-4-oxo-1,4-dihydroquinoline-3-carboxylic acid] are within 1.5-fold of each other in IC50: 67 nM for the first, 59 nM for the second.

First: CC(C)n1cc(C(=O)O)c(=O)c2cc(Cc3cccc(Cl)c3Cl)ccc21 [Example 1-8, 6-(2,3-Dichlorobenzyl)-1-isopropyl-4-oxo-1,4-dihydroquinoline-3-carboxylic acid]
Second: CC(C)Cn1cc(C(=O)O)c(=O)c2cc(Cc3cccc(Cl)c3Cl)ccc21 [Example 1-18, 6-(2,3-Dichlorobenzyl)-1-isobutyl-4-oxo-1,4-dihydroquinoline-3-carboxylic acid]
The IC50 of the first is 2.6-fold lower: 46 nM for the first, 120 nM for the second.

Going from O=C(O)CCn1cc(C(=O)O)c(=O)c2cc(Cc3cccc(Cl)c3Cl)ccc21 [Example 1-10, 1-(2-Carboxyethyl)-6-(2,3-dichlorobenzyl)-4-oxo-1,4-dihydroquinoline-3-carboxylic acid] to NC(=O)CCn1cc(C(=O)O)c(=O)c2cc(Cc3cccc(Cl)c3Cl)ccc21 [Example 1-13, 1-(2-Carbamoylethyl)-6-(2,3-dichlorobenzyl)-4-oxo-1,4-dihydroquinoline-3-carboxylic acid], the IC50 rises from 72 nM to 140 nM (1.9-fold).

Compared with O=C(O)c1cn(CCO)c2ccc(Cc3cccc4ccccc34)cc2c1=O [Example 1-11, 1-(2-Hydroxyethyl)-6-naphthalen-1-ylmethyl-4-oxo-1,4-dihydroquinoline-3-carboxylic acid], O=C(O)c1cn(CCc2ccccc2)c2ccc(Cc3cccc(Cl)c3Cl)cc2c1=O [Example 1-16, 6-(2,3-Dichlorobenzyl)-4-oxo-1-phenethyl-1,4-dihydroquinoline-3-carboxylic acid] is 5.6-fold lower in IC50: 180 nM for the first, 32 nM for the second. The second is the more potent here.

First: COC(=O)c1cn(CCO)c2ccc(Cc3cccc(Cl)c3Cl)cc2c1=O [Example 1-12, 6-(2,3-Dichlorobenzyl)-1-(2-hydroxyethyl)-4-oxo-1,4-dihydroquinoline-3-carboxylic acid methyl ester]
Second: CSCCn1cc(C(=O)O)c(=O)c2cc(Cc3cccc(Cl)c3Cl)ccc21 [Example 1-32, 6-(2,3-Dichlorobenzyl)-1-(2-methylsulfanylethyl)-4-oxo-1,4-dihydroquinoline-3-carboxylic acid]
The IC50 of the first is 10-fold higher: 710 nM for the first, 68 nM for the second.

First: O=C(O)c1cn(Cc2ccccc2)c2ccc(Cc3cccc(Cl)c3Cl)cc2c1=O [Example 1-15, 1-Benzyl-6-(2,3-dichlorobenzyl)-4-oxo-1,4-dihydroquinoline-3-carboxylic acid]
Second: O=C(O)c1cn(CCCc2ccccc2)c2ccc(Cc3cccc(Cl)c3Cl)cc2c1=O [Example 1-17, 6-(2,3-Dichlorobenzyl)-1-(3-phenylpropyl)-4-oxo-1,4-dihydroquinoline-3-carboxylic acid]
The IC50 of the first is 2.7-fold higher: 230 nM for the first, 84 nM for the second.

O=C(O)c1cn(CCCCc2ccccc2)c2ccc(Cc3cccc(Cl)c3Cl)cc2c1=O [Example 1-19, 6-(2,3-Dichlorobenzyl)-1-(4-phenylbutyl)-4-oxo-1,4-dihydroquinoline-3-carboxylic acid] and O=C(O)c1cn(CCCCO)c2ccc(Cc3cccc(Cl)c3Cl)cc2c1=O [Example 1-21, 6-(2,3-Dichlorobenzyl)-1-(4-hydroxybutyl)-4-oxo-1,4-dihydroquinoline-3-carboxylic acid] are within 1.5-fold of each other in IC50: 81 nM for the first, 74 nM for the second.

Going from O=C(O)c1cn(Cc2ccccc2-c2ccccc2)c2ccc(Cc3cccc(Cl)c3Cl)cc2c1=O [Example 1-20, 1-Biphenyl-2-ylmethyl-6-(2,3-dichlorobenzyl)-4-oxo-1,4-dihydroquinoline-3-carboxylic acid] to O=C(O)c1cn(Cc2cc3ccccc3s2)c2ccc(Cc3cccc(Cl)c3Cl)cc2c1=O [Example 1-22, 1-Benzo[b]thiophen-2-ylmethyl-6-(2,3-dichlorobenzyl)-4-oxo-1,4-dihydroquinoline-3-carboxylic acid], the IC50 falls from 690 nM to 110 nM (6.3-fold).

O=C(O)c1cn(Cc2ccc(Cl)c(Cl)c2)c2ccc(Cc3cccc(Cl)c3Cl)cc2c1=O [Example 1-23, 6-(2,3-dichlorobenzyl)-1-(3,4-dichlorobenzyl)-4-oxo-1,4-dihydroquinoline-3-carboxylic acid] and CC(O)Cn1cc(C(=O)O)c(=O)c2cc(Cc3cccc(Cl)c3Cl)ccc21 (stereo not drawn) [Example 1-30, 6-(2,3-Dichlorobenzyl)-1-(2-hydroxypropyl)-4-oxo-1,4-dihydroquinoline-3-carboxylic acid] are within 1.5-fold of each other in IC50: 190 nM for the first, 140 nM for the second.

First: CN(C)CCn1cc(C(=O)O)c(=O)c2cc(Cc3cccc(Cl)c3Cl)ccc21 [Example 1-24, 6-(2,3-Dichlorobenzyl)-1-(2-dimethylaminoethyl)-4-oxo-1,4-dihydroquinoline-3-carboxylic acid]
Second: O=C(O)c1cn(CC(F)(F)F)c2ccc(Cc3cccc(Cl)c3Cl)cc2c1=O [Example 1-27, 6-(2,3-Dichlorobenzyl)-1-(2,2,2-trifluoroethyl)-4-oxo-1,4-dihydroquinoline-3-carboxylic acid]
The IC50 of the first is 3.8-fold higher: 290 nM for the first, 76 nM for the second.

Cc1ncsc1CCn1cc(C(=O)O)c(=O)c2cc(Cc3cccc(Cl)c3Cl)ccc21 [Example 1-29, 6-(2,3-Dichlorobenzyl)-1-[2-(4-methylthiazol-5-yl)ethyl]-4-oxo-1,4-dihydroquinoline-3-carboxylic acid] and O=C(O)c1cn(CCO)c2ccc(Cc3cccc(Cl)c3)cc2c1=O [Example 1-31] are within 1.5-fold of each other in IC50: 240 nM for the first, 170 nM for the second.
